Assay results reported in patent publication US7820803B2, “Immobilized phosphatidic acid probe” (priority 2000, dated 2010).
Blank lines part the entries; values can stand above or below the compound they belong to.

Tests used:
[1] = Solubility of ω-amino phosphatidic acid in solvents; assay type: physicochemical; conditions: in a range of solvents; chloroform-methanol-water needed
Description: The immobilised PA [1] was prepared by coupling of the ω-amino phosphatidic acid (−), which was synthesised in 7 steps starting from the optically pure protected glycerol derivative (−), with the N-hydroxysuccinimide (NHS) activated ester agarose resin, Affi-Gel 10, as is depicted in Scheme 1. […] Excess resin (ca. 5 equiv. of NHS-groups) was used, resulting in a loading of 80% [2] onto the beads, as determined by the quantification of recovered by 1H-NMR in the presence of an internal standard.
Finally, the PA amine 33 and PtdIns(4,5)P2 amine 34 were coupled to the N-hydroxysuccinimide (NHS)-activated ester resin, Affi-Gel 10, to afford the corresponding affinity matrices 31 and 32. The PtdIns(4,5)P2 modified matrix was prepared in water using excess NaHCO3, by reacting the activated Affi Gel 10 [resin […] (4 mL)] with the amine 34 ([…]) to give a loading of 4.5 mmol as judged from the recovery of the amino phospholipid 34, that was quantified by 500 MHz ^1H-NMR spectroscopy in the presence of myo-inositol orthoformate 43 as the internal standard.

[2] = target: T1, α-tocopherol-transfer protein (ATTP) (Homo sapiens, UniProt P49638); assay: Recombinant protein binding to derivatised beads: inhibition by free phosphoinositides (FIG. 11); conditions: all lipids at one concentration, relative affinity
T1 construct: His (N); made in house; host or cells: E. coli
T1 sequence (P49638 1-278): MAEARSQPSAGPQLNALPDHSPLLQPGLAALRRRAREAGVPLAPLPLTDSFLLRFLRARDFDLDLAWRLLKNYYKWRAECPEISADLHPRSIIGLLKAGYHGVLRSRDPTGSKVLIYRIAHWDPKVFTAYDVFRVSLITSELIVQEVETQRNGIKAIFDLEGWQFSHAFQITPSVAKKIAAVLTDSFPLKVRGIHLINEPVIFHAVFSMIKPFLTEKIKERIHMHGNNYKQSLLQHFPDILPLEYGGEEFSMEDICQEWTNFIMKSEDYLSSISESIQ
Source text: (§1) FIG. 11. Protein binding to derivatised beads: inhibition by free phosphoinositides. Recombinant proteins (in Cos cell lysates or expressed and purified) were bound to PtdIns(3,4,5)P3 or PtdIns(3,4)P2 beads in the presence of various free phosphoinositides (for details, see Methods). For PIP3-E, a full length construct was expressed in Cos cells while a truncated version (residues 40-437) was purified from E.Coli. […] Unless otherwise indicated, the first lane was loaded with a sample equivalent to 1% (Cos cell lysates) or 10% (purified recombinant proteins) of the protein sample that was incubated with beads. As appropriate, tagged proteins were detected with antibodies (anti-myc, anti-GFP, anti-HIS, or anti-EE; see Methods) or by silver-staining (PIP3-G/H-EE, EE-myosin 1F, GST-cytohesin-4, DAPP1, PIP3-E, MEG-2 and CDC42-GAP). For each protein, the data shown are representative of information collected in 4 independent experiments. […]
(§2) Samples of the supernatants were diluted up to 4-fold in lysis buffer, depending on expression levels, and mixed with indicated concentrations of phosphoinositide in 1 ml (FIG. 11) for 10 min on ice. […] Proteins were eluted with SDS sample buffer, separated by SDS-PAGE and detected by immunoblotting [anti-myc (monoclonal 9E10) or anti-GFP (rabbit polyclonal): Clontech). […]

[3] = target: T2, SR1 (Homo sapiens, UniProt Q8IWB7); assay: as above; conditions: all lipids at one concentration, relative affinity
T2 construct: Multiple overlapping clones allowed prediction of full-length human ORFs for each protein; EE (N); made in house; host or cells: Sf9 (baculovirus)
T2 sequence (Q8IWB7 1-410): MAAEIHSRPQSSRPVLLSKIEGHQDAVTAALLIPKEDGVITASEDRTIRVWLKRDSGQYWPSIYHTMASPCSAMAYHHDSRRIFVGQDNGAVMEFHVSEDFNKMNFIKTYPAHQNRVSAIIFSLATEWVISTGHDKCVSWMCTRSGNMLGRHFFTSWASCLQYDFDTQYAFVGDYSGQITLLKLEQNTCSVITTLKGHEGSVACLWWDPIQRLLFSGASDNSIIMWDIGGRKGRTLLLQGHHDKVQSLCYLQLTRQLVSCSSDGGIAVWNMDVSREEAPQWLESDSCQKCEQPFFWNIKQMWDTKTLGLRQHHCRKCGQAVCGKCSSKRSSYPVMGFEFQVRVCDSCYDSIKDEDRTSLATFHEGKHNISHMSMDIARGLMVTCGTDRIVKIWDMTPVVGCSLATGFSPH
Source text: as §1, §2

[4] = target: T3, SR3 (Homo sapiens, UniProt Q9HBF4); assay: as above; conditions: all lipids at one concentration, relative affinity
T3 construct: Multiple overlapping clones allowed prediction of full-length human ORFs for each protein; EE (N); made in house; host or cells: Sf9 (baculovirus)
T3 sequence (Q9HBF4 1-777): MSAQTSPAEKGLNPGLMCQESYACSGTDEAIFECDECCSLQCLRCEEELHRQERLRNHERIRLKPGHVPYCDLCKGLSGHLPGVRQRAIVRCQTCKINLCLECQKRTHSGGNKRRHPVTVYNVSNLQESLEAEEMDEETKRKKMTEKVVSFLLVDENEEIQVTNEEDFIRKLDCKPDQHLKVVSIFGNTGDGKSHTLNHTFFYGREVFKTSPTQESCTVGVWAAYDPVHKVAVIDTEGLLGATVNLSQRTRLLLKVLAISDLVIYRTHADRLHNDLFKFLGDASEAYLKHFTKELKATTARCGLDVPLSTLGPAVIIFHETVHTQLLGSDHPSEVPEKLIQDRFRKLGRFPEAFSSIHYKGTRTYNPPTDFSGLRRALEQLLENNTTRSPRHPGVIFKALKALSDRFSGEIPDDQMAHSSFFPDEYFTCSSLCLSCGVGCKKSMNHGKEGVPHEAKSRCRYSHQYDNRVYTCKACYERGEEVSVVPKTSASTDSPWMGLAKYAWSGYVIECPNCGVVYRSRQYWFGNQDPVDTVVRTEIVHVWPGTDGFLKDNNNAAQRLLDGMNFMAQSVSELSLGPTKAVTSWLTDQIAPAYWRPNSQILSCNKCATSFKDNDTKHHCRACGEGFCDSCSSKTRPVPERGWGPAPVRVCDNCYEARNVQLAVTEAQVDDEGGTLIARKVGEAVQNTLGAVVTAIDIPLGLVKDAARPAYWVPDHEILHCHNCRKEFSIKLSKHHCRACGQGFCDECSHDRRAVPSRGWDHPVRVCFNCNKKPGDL
Source text: as §1, §2

- solubility [1]: poor solubility
SMILES: CCCCCCCCCCCCCCCC(=O)O[C@H](COC(=O)CCCCCCCCCCCN)COP(=O)(O)O [[2], 1-O-(12-Amino)dodecanoyl-2-O-hexadecanoyl-sn-glycer-3-ylphosphate]

- displacement of ATTP from PtdIns(3,4)P2 beads by free phosphoinositide [2]: displaced most effectively
SMILES: CCCCCCCCCCCCCCCC(=O)OC[C@H](COP(=O)(O)O[C@H]1[C@H](O)[C@@H](OP(=O)(O)O)[C@H](O)[C@@H](O)[C@H]1O)OC(=O)CCCCCCCCCCCCCCC [PtdIns5P]

- displacement of SR1 from PtdIns(3,4)P2 beads by free phosphoinositide [3]: most effectively
- displacement of SR3 from PtdIns(3,4)P2 beads by free phosphoinositide [4]: most effectively
SMILES: CCCCCCCCCCCCCCCC(=O)OC[C@H](COP(=O)(O)O[C@@H]1[C@H](O)[C@H](OP(=O)(O)O)[C@@H](O)[C@H](O)[C@H]1O)OC(=O)CCCCCCCCCCCCCCC [PtdIns3P]

- displacement of ATTP from PtdIns(3,4)P2 beads by free phosphoinositide [2]: displaced most effectively
SMILES: CCCCCCCCCCCCCCCC(=O)OC[C@H](COP(=O)(O)OC1[C@H](O)[C@H](O)C(OP(=O)(O)O)[C@H](O)[C@H]1O)OC(=O)CCCCCCCCCCCCCCC (some centres unmarked) [PtdIns4P]
